Test results from paper PMC12586182 (Frontiers in Oncology, 2025).

How the values were obtained:
Assay in all cases: Kinase panel profiling at 1 µmol/L (mobility shift assay, Carna)
Assay type in all cases: biochemical
Conditions in all cases: 1 µmol/L of BTK inhibitor
EPHA4 = molecular target: T1, EPHA4 (Homo sapiens, UniProt P54764)
T1 construct: purchased Carna Biosciences

PKD1 = molecular target: T2, PKD1 (Homo sapiens, UniProt Q15139)
T2 construct: purchased Carna Biosciences
T2 sequence (Q15139 1-912): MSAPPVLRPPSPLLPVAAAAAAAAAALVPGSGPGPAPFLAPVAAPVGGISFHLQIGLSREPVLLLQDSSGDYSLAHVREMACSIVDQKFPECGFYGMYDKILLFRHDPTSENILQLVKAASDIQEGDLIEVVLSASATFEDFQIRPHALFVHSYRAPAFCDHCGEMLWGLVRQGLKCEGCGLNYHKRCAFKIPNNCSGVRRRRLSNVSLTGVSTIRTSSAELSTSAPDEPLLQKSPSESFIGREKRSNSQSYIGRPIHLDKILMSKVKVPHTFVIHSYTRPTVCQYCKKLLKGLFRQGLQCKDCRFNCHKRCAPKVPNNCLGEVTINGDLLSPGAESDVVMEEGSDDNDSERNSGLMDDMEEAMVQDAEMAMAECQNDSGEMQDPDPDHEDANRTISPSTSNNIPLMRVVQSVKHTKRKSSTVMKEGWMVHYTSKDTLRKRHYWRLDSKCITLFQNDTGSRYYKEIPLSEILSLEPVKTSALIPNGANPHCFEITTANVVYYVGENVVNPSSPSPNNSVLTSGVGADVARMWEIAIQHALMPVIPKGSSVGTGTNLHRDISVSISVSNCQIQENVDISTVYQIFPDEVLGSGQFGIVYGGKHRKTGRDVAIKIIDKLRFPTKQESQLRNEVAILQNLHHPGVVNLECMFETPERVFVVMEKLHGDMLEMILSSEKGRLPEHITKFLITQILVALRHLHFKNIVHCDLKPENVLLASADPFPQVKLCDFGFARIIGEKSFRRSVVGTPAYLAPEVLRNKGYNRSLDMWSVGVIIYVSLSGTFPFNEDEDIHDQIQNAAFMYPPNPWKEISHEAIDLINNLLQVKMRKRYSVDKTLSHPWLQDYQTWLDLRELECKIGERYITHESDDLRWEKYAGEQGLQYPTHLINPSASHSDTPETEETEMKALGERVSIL

GSK3β = molecular target: T3, GSK3β (Homo sapiens, UniProt P49841)
T3 construct: purchased Carna Biosciences
T3 sequence (P49841 whole entry): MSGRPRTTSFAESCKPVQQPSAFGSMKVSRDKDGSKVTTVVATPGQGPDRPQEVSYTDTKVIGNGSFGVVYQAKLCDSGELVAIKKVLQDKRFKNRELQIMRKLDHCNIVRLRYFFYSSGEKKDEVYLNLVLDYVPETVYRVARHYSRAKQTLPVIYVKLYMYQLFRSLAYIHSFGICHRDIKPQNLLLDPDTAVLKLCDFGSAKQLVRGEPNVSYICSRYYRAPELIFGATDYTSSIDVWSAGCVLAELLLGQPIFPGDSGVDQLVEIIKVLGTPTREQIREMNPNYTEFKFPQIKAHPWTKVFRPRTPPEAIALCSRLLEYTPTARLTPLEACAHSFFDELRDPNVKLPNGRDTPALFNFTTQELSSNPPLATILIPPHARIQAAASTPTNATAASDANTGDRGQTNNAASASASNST

MELK = molecular target: T4, MELK (Homo sapiens, UniProt Q14680)
T4 construct: purchased Carna Biosciences

MAP4K2 = molecular target: T5, MAP4K2 (Homo sapiens, UniProt Q12851)
T5 construct: purchased Carna Biosciences
T5 sequence (Q12851 1-820): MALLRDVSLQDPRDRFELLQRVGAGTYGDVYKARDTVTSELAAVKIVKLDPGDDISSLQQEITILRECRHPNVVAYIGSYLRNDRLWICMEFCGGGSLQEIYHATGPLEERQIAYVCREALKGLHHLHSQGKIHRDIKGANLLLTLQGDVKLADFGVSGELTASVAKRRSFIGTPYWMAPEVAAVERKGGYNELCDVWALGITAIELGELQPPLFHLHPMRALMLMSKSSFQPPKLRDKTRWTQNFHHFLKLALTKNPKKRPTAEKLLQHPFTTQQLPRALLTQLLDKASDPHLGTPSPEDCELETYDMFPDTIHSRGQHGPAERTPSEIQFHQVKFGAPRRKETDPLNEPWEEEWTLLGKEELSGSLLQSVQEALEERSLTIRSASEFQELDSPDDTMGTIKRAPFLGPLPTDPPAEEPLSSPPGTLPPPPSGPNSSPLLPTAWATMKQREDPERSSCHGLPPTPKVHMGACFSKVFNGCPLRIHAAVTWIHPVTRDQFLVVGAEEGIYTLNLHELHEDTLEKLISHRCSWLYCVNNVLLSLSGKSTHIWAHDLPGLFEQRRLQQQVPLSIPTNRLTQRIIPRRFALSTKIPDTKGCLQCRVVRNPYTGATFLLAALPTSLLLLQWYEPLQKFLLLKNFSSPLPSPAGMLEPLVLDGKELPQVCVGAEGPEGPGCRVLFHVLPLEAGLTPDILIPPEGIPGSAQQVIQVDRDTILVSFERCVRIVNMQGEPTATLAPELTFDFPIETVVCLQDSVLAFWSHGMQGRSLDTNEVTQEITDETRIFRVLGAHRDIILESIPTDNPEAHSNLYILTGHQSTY

NEK6 = molecular target: T6, NEK6 (Homo sapiens, UniProt Q9HC98)
T6 construct: purchased Carna Biosciences
T6 sequence (Q9HC98 whole entry): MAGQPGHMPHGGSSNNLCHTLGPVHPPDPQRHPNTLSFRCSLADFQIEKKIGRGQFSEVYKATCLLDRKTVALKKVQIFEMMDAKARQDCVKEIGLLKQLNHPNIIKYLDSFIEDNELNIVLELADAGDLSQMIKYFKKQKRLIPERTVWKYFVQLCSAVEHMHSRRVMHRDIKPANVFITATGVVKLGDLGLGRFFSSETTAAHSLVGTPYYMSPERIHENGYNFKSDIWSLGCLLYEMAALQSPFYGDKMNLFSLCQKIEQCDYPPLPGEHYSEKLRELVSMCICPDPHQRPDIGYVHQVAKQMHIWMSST

PKCη = molecular target: T7, PKCη (Homo sapiens, UniProt P24723)
T7 construct: purchased Carna Biosciences
T7 sequence (P24723 whole entry): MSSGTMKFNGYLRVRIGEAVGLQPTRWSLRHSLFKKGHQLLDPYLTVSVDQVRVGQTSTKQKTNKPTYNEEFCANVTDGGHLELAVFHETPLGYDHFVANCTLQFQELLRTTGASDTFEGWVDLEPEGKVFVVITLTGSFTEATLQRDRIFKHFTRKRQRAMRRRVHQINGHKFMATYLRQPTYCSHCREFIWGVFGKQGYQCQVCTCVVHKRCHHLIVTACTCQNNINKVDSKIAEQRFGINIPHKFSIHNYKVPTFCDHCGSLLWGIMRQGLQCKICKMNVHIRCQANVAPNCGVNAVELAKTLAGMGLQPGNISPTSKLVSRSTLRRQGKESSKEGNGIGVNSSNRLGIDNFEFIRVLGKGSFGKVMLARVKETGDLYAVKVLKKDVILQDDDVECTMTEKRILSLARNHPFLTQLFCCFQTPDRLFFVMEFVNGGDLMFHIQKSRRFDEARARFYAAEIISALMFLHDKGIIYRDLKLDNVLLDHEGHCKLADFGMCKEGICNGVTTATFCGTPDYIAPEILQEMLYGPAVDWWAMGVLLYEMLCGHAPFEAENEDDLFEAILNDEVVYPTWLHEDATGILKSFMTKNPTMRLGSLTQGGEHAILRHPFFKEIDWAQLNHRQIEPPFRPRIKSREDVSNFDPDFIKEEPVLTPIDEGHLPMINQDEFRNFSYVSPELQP

AMPKα2/β1/γ1 = molecular target: T8, AMPKα2/β1/γ1 (Homo sapiens, UniProt P54646)
T8 construct: purchased Carna Biosciences

CDC7/ASK = molecular target: T9, CDC7/ASK (Homo sapiens, UniProt O00311)
T9 construct: purchased Carna Biosciences
T9 sequence (O00311 whole entry): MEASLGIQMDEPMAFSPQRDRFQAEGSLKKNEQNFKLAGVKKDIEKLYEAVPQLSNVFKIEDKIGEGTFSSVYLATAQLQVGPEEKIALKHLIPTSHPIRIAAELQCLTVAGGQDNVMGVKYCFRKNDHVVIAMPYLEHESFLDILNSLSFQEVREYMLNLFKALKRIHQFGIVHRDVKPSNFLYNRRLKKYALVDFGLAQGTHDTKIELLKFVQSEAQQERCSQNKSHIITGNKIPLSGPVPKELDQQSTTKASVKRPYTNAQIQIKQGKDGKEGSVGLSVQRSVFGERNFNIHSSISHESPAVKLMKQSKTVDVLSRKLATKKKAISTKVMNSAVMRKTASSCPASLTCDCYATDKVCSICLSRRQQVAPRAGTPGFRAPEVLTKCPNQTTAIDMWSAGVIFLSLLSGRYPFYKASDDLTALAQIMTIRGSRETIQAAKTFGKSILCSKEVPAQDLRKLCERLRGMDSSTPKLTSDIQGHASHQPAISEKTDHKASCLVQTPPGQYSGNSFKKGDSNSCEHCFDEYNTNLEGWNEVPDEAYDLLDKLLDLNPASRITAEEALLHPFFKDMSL
T9 sequence (Q9UBU7 whole entry partner): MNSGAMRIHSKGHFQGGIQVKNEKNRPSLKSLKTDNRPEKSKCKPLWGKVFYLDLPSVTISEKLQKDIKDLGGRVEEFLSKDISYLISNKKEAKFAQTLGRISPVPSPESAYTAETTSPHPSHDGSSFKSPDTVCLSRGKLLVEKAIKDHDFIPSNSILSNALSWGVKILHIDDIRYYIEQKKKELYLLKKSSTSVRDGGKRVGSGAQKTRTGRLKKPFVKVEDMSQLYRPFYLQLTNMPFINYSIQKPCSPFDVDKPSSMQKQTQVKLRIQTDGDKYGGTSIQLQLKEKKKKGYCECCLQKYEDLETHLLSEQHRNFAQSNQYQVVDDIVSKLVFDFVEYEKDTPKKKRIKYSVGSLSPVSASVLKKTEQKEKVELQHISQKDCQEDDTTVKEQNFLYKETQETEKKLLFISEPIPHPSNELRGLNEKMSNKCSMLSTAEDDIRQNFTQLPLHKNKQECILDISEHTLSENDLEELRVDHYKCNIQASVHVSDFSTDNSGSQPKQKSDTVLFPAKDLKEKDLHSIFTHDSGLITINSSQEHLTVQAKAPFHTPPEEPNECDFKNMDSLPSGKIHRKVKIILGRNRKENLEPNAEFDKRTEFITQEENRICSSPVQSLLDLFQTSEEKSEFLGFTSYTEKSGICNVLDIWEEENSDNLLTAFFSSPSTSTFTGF

QIK = molecular target: T10, QIK (Homo sapiens, UniProt Q9H0K1)
T10 construct: purchased Carna Biosciences

JNK1 = molecular target: T11, JNK1 (Homo sapiens, UniProt P45983)
T11 construct: purchased Carna Biosciences
T11 sequence (P45983 whole entry): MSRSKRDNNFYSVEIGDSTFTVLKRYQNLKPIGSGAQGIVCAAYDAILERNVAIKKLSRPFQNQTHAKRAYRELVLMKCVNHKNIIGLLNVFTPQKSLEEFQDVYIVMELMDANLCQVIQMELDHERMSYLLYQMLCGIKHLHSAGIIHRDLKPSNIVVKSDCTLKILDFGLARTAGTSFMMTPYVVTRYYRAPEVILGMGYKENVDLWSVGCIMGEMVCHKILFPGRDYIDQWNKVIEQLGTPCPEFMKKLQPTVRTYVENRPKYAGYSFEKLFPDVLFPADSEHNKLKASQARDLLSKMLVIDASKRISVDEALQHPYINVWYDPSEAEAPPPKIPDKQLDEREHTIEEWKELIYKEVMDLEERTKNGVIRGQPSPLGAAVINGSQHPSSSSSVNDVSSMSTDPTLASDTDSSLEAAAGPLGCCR

PLK1 = molecular target: T12, PLK1 (Homo sapiens, UniProt P53350)
T12 construct: purchased Carna Biosciences
T12 sequence (P53350 whole entry): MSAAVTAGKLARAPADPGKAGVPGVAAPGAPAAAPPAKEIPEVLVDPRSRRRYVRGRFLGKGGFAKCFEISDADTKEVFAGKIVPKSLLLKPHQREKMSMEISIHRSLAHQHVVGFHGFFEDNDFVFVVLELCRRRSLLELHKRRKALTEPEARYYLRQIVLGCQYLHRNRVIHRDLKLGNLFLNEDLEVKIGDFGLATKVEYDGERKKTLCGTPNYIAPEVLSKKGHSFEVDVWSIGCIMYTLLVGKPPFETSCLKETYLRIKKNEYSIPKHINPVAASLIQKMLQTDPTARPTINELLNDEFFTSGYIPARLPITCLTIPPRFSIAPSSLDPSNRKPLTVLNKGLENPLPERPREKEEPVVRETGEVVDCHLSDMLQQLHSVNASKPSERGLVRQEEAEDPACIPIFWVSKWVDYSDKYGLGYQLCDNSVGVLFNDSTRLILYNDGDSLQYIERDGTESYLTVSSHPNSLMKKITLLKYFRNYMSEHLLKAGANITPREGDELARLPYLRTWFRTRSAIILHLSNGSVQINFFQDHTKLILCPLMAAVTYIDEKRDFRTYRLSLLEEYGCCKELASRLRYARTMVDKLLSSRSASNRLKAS

NDR1 = molecular target: T13, NDR1 (Homo sapiens, UniProt Q15208)
T13 construct: purchased Carna Biosciences
T13 sequence (Q15208 whole entry): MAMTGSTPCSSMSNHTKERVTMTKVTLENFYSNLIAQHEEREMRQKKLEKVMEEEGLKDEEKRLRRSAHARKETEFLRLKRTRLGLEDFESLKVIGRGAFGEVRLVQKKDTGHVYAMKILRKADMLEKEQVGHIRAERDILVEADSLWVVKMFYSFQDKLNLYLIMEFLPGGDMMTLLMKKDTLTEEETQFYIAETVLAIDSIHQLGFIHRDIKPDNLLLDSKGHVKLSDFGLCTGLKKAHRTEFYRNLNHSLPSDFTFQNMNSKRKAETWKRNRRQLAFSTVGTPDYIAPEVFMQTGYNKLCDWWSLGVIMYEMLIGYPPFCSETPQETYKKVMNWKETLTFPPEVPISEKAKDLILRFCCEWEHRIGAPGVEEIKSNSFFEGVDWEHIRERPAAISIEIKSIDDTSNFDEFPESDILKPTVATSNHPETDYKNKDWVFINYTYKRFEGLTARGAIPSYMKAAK

CDK3/CycE1 = molecular target: T14, CDK3/CycE1 (Homo sapiens, UniProt Q00526)
T14 construct: purchased Carna Biosciences

PLK3 = molecular target: T15, PLK3 (Homo sapiens, UniProt Q9H4B4)
T15 construct: purchased Carna Biosciences
T15 sequence (Q9H4B4 whole entry): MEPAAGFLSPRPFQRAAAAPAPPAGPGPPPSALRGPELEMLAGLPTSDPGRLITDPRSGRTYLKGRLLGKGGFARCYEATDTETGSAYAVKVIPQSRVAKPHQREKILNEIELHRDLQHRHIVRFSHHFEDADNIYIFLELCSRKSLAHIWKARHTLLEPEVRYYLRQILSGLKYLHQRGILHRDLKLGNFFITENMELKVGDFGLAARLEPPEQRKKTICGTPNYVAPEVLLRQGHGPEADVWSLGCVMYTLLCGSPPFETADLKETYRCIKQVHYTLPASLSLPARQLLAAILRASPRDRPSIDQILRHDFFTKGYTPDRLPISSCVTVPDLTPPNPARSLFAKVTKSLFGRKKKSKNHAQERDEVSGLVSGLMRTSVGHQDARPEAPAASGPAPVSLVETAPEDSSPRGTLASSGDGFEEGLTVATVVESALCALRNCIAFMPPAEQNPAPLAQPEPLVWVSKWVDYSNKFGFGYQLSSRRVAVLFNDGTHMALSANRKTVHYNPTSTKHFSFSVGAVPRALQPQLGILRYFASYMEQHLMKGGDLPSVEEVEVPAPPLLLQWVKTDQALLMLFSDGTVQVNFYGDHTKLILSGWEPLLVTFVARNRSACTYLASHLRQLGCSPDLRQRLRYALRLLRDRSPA

C=CC(=O)N1CCC([C@@H]2CCNc3c(C(N)=O)c(-c4ccc(Oc5ccccc5)cc4)nn32)CC1 [zanubrutinib]
Percentage inhibition of kinase enzyme activity (EPHA4): 0.04%

CC#CC(=O)N1CCC[C@H]1c1nc(-c2ccc(C(=O)Nc3ccccn3)cc2)c2c(N)nccn12 [acalabrutinib]
Percentage inhibition of kinase enzyme activity (PKD1): -9.48% | Percentage inhibition of kinase enzyme activity (GSK3β): -2.39% | Percentage inhibition of kinase enzyme activity (MELK): -0.54% | Percentage inhibition of kinase enzyme activity (MAP4K2): -11.21% | Percentage inhibition of kinase enzyme activity (EPHA4): -3.03% | Percentage inhibition of kinase enzyme activity (NEK6): -5.54% | Percentage inhibition of kinase enzyme activity (PKCη): -3.18% | Percentage inhibition of kinase enzyme activity (AMPKα2/β1/γ1): 3.50% | Percentage inhibition of kinase enzyme activity (CDC7/ASK): -1.64% | Percentage inhibition of kinase enzyme activity (QIK): -0.22% | Percentage inhibition of kinase enzyme activity (JNK1): -0.88% | Percentage inhibition of kinase enzyme activity (PLK1): -2.57% | Percentage inhibition of kinase enzyme activity (NDR1): -6.32% | Percentage inhibition of kinase enzyme activity (CDK3/CycE1): -6.14% | Percentage inhibition of kinase enzyme activity (PLK3): 1.76%

COc1ccc(F)cc1C(=O)NCc1ccc(-c2nn([C@@H](C)C(F)(F)F)c(N)c2C(N)=O)cc1 [pirtobrutinib]
Percentage inhibition of kinase enzyme activity (PKD1): 4.89% | Percentage inhibition of kinase enzyme activity (GSK3β): -23.01% | Percentage inhibition of kinase enzyme activity (MELK): -5.13% | Percentage inhibition of kinase enzyme activity (MAP4K2): 3.56% | Percentage inhibition of kinase enzyme activity (EPHA4): 9.50% | Percentage inhibition of kinase enzyme activity (NEK6): -2.92% | Percentage inhibition of kinase enzyme activity (PKCη): 3.32% | Percentage inhibition of kinase enzyme activity (AMPKα2/β1/γ1): 6.23% | Percentage inhibition of kinase enzyme activity (CDC7/ASK): -5.67% | Percentage inhibition of kinase enzyme activity (QIK): 8.30% | Percentage inhibition of kinase enzyme activity (JNK1): -0.29% | Percentage inhibition of kinase enzyme activity (PLK1): 1.53% | Percentage inhibition of kinase enzyme activity (NDR1): 1.20% | Percentage inhibition of kinase enzyme activity (CDK3/CycE1): -4.77% | Percentage inhibition of kinase enzyme activity (PLK3): -1.13%

O=C(c1ccc(Oc2ccccc2)cc1Cl)c1c[nH]c2ncnc(N[C@@H]3CC[C@@H](CO)OC3)c12 [nemtabrutinib]
Percentage inhibition of kinase enzyme activity (PKD1): 7.45% | Percentage inhibition of kinase enzyme activity (GSK3β): -7.92% | Percentage inhibition of kinase enzyme activity (MELK): 81.25% | Percentage inhibition of kinase enzyme activity (MAP4K2): 78.03% | Percentage inhibition of kinase enzyme activity (EPHA4): 82.34% | Percentage inhibition of kinase enzyme activity (NEK6): -0.80% | Percentage inhibition of kinase enzyme activity (PKCη): 5.25% | Percentage inhibition of kinase enzyme activity (AMPKα2/β1/γ1): 40.46% | Percentage inhibition of kinase enzyme activity (CDC7/ASK): -1.26% | Percentage inhibition of kinase enzyme activity (QIK): 81.76% | Percentage inhibition of kinase enzyme activity (JNK1): -3.89% | Percentage inhibition of kinase enzyme activity (PLK1): 1.28% | Percentage inhibition of kinase enzyme activity (NDR1): 3.34% | Percentage inhibition of kinase enzyme activity (CDK3/CycE1): 7.04% | Percentage inhibition of kinase enzyme activity (PLK3): 5.13%

C=CC(=O)N1CCC[C@@H](n2nc(-c3ccc(Oc4ccccc4)cc3)c3c(N)ncnc32)C1 [ibrutinib]
Percentage inhibition of kinase enzyme activity (PKD1): 3.22% | Percentage inhibition of kinase enzyme activity (GSK3β): -4.00% | Percentage inhibition of kinase enzyme activity (MELK): 8.08% | Percentage inhibition of kinase enzyme activity (MAP4K2): -4.43% | Percentage inhibition of kinase enzyme activity (EPHA4): 12.63% | Percentage inhibition of kinase enzyme activity (NEK6): 0.77% | Percentage inhibition of kinase enzyme activity (PKCη): 3.27% | Percentage inhibition of kinase enzyme activity (AMPKα2/β1/γ1): 10.21% | Percentage inhibition of kinase enzyme activity (CDC7/ASK): -0.99% | Percentage inhibition of kinase enzyme activity (QIK): 4.70% | Percentage inhibition of kinase enzyme activity (JNK1): -2.33% | Percentage inhibition of kinase enzyme activity (PLK1): -2.28% | Percentage inhibition of kinase enzyme activity (NDR1): 2.65% | Percentage inhibition of kinase enzyme activity (CDK3/CycE1): 0.49% | Percentage inhibition of kinase enzyme activity (PLK3): 1.53%
